The conditions of series [1]: solar simulator, total energy 100 mJ/cm^2; cited from earlier work.
Series [2] can be described thus: Photostabilization of avobenzone in ethanol test solution under sun simulator. The procedure:
A comparative photostabilization study was conducted comparing the photostabilization efficacy of the compound of Example 1, HSS, and the compound of Example 3 (Compound 3) with Octocrylene and Oxynex® ST in the stabilization of avobenzone. Samples for evaluation were prepared as follows:
Solutions in ethanol are prepared at respective concentrations of photosensitive materials and photostabilizer (typically 1:1 to 1:5 weight ratio). A base test solution of 3% Avobenzone+5% Octyl salicylate +10% Homoslate in Ethanol (the “Test Solution”) was made. Seven additional solutions were prepared by adding 2% Synoxyl™ HSS, 4% Synoxyl™ HSS, 4% Compound 3, 2% Octocrylene, 4% Octocrylene, 2% Oxynex® ST, and 2% dehydrozingerone methyl ether, respectively, to seven aliquots of the Test Solution.
(§1) Samples of each solution were prepared as ultrathin films between two quartz plates so as to obtain a minimum of 90% light transmission over the entire spectrum range of non absorbing chromophores. For example, ingredients which absorb only in the UV range were tested in formulation to obtain a minimum of 90% light transmission over the visible range. Each sample was then irradiated under sun simulator (754 W/m^2, 2 MED/h, UV dose from 20 to 100 Joules/cm^2) for various durations and light absorption spectra recorded for each sample at given times. The maximal absorption band λmax of each solution was determined before and after irradiation. The amount of the photosensitive materials remaining in solution after irradiation was calculated as the ratio of their two maximal absorptions.

Series [3] is described as follows: Photostability of sunscreen formulation under sun simulator. The settings on record: 4% stabilizer in sunscreen with 2% butyl methoxydibenzoylmethane. How it is done:
as §1
Three samples of this were taken for photostability testing according to the method of Example 6 above. The first sample, the Control, was not modified whereas the two remaining samples were modified by incorporating therein 2% of the compound of Example 1, HSS, and 4% octocrylene, respectively. The three formulations were prepared by first preparing each of Phase A1 and A2 and then dispersing Phase A2 in Phase A1 with agitation and heating to 75 C. Phase B was prepared and heated to 75° C. Phase B is then combined with the Phase A mixture with continuous stirring. The combination was subsequently homogenized for 2-3 minutes, and the batch cooled to 45° C. Phases C and were separately prepared and then mixed with the cooled batch until uniform.
As with Example 6, each was exposed to irradiation for various durations and the photostability tested. As evidenced from the results shown in Table 7, the stabilizer compound of the present invention performed markedly better than that of the conventional photostabilizer in the formulated product.

For series [4] the following is noted: cited from earlier work.
[5] abbreviates: 2% stabilizer in Test Solution (3% Avobenzone), UV dose 0 Joules/cm^2.
Setting [6] is: 2% stabilizer in Test Solution (3% Avobenzone), UV dose 20 Joules/cm^2.
Setting [7] is: 2% stabilizer in Test Solution (3% Avobenzone), UV dose 40 Joules/cm^2.
Where [8] appears, read: 4% stabilizer in Test Solution (3% Avobenzone), UV dose 0 Joules/cm^2.
The mark [9] stands for this setting: 4% stabilizer in Test Solution (3% Avobenzone), UV dose 20 Joules/cm^2.
[10] abbreviates: 4% stabilizer in Test Solution (3% Avobenzone), UV dose 40 Joules/cm^2.
Setting [11] is: 4% stabilizer in Test Solution (3% Avobenzone), UV dose 60 Joules/cm^2.
The mark [12] stands for this setting: 4% stabilizer in Test Solution (3% Avobenzone), UV dose 80 Joules/cm^2.
[13] abbreviates: 4% stabilizer in Test Solution (3% Avobenzone), UV dose 100 Joules/cm^2.

The text below walks through data of patent publication US8617528B2, “Compositions and methods for stabilizing ingredients using 2,4-pentanedione compounds” (Sytheon Ltd., priority 2010, dated 2013).

What is called melting point is the temperature, or range, at which the solid turns liquid.

`Cc1ccc(C(C)C)cc2c(C)ccc1-2` [Guaiazulene]: the “lost due to degradation” value in series [1] is given as approximately 90%.

Turning to `CCCCC(CC)COC(=O)C(C#N)=C(c1ccccc1)c1ccccc1` (stereo not shown) [Octocrylene], the “% remaining” value in series [2] (setting [5]) is reported as 100%; in series [2] (setting [6]), 92%; in series [2] (setting [7]), 80%; in series [2] (2% stabilizer in Test Solution (3% Avobenzone), UV dose 60 Joules/cm^2) it was 68%; in series [2] (2% stabilizer in Test Solution (3% Avobenzone), UV dose 80 Joules/cm^2), 64%; in series [2] (2% stabilizer in Test Solution (3% Avobenzone), UV dose 100 Joules/cm^2) it was 58%. Besides, the “% remaining” value is on record as 100% in series [2] (setting [8]); 94% in series [2] (setting [9]); 83% in series [2] (setting [10]); 73% in series [2] (setting [11]); 67% in series [2] (setting [12]); 60% in series [2] (setting [13]). Also, the “photostability of sunscreen formulation (% remaining)” value in series [3] (UV dose 0 Joules/cm^2) is recorded as 100%; in series [3] (UV dose 20 Joules/cm^2) it was 94%; in series [3] (UV dose 40 Joules/cm^2), 89%; in series [3] (UV dose 60 Joules/cm^2), 82%.

As for `COc1ccc(/C=C/C(C)=O)cc1OC` [Dehydrozingerone methyl ether, Dehydrozingerone methylether], the results for the “% remaining” value in series [2] (setting [5]), in series [2] (setting [6]) and in series [2] (setting [7]) were 100%, 59% and 26%, respectively. Besides, in series [2] (summary statement), the “stabilization of photosensitive compounds” value is listed as “fails to stabilize photosensitive compounds”.

For the compound `CC1=C(/C=C/C(C)=C/C=C/C(C)=C/C(=O)O)C(C)(C)CCC1` [tretinoin, all-trans-retinoic acid], in series [4], the “solubility in diethylhexyl diester of 2,6-naphthalene-dicarboxylic acid” value is on record as “approximately 5.6 mg/ml”. In addition, the solubility in water entry in series [4] (water) was “practically insoluble”.

Take `CC1=C(/C=C/C(C)=C/C=C/C(C)=C\C(=O)O)C(C)(C)CCC1` [isotretinoin, 13-cis-retinoic acid]: the “solubility in diethylhexyl diester of 2,6-naphthalene-dicarboxylic acid” value in series [4] is “approximately 6.7 mg/ml”.

For the compound `COc1ccc(C=C(C(C)=O)C(C)=O)cc1` [Compound 3, 3-(4-methoxybenzylidene)-2,4-pentanedione], the melting point fell in the range of 82 to 84 °C. Also, in series [2] (setting [8]), the “% remaining” value is 100%. The “% remaining” value in series [2] (setting [9]) is recorded as 96%. Further, the “% remaining” value in series [2] (setting [10]) is reported as 90%. In series [2] (setting [11]), the “% remaining” value was 80%. In addition, the “% remaining” value in series [2] (setting [12]) is on record as 73%. Moreover, the “% remaining” value in series [2] (setting [13]) is given as 68%.
